Data taken from patent US20170209408A1, “HSP90 INHIBITORS FOR THE TREATMENT OF OBESITY AND METHODS OF USE THEREOF” (The Children's Medical Center Corporation, priority 2014, published 2017).
“Also recorded” adds a separate entry of the source.

Columns and labels:
[1] = rating from cited sources, cited from earlier work
HFD-fed obese mice = assay: Body weight and food intake in high fat diet (HFD)-fed obese mice, daily i.p. injection; assay type: in vivo, C57Bl/6J mice; conditions: three weeks, vs DMSO vehicle
Protocol: To investigate whether gambogic acid can act as an anti-obesity drug by increasing leptin sensitivity and reducing appetite, C57Bl/6J mice were placed on a high fat diet (HFD; Research Diets, D12451, 45 kcal % fat) feeding for 16 weeks. After establishment of obesity and leptin resistance, mice were administered gambogic acid (at 0.5 mg/kg, in 25 μl DMSO, once per day) and vehicle (DMSO, 25 μl) with intraperitoneal (i.p.) injection. The animals had free access to food and water unless otherwise stated. In all experiments, three days prior to drug administration, the animals went through an acclimation period where they were given DMSO (25 μl) to reduce the effect of stress created by i.p. injection. Following three days acclimation, mice were administered gambogic acid daily i.p. injections at 0.5 mg/kg for three weeks in 25 μl of DMSO as vehicle, whereas the control group received the same volume of DMSO. […] To investigate whether tanespimycin can act as an anti-obesity drug by increasing leptin sensitivity and reducing appetite, C57Bl/6J mice were placed on a high fat diet (HFD; Research Diets, D12451, 45 kcal % fat) feeding for 16 weeks. After establishment of obesity and leptin resistance, mice were administered tanespimycin (at 15 mg/kg, in 25 μl DMSO, once per day) and vehicle (DMSO, 25 μl) with intraperitoneal (i.p.) injection. The animals had free access to food and water unless otherwise stated. In all experiments, three days prior to drug administration, the animals went through an acclimation period where they were given DMSO (25 μ1) to reduce the effect of stress created by i.p. injection. Following three days acclimation, mice were administered tanespimycin daily i.p. injections at 15 mg/kg for three weeks in 25 μl of DMSO as vehicle, whereas the control group received the same volume of DMSO. […] To investigate whether NVP-AUY922 can act as an anti-obesity drug by increasing leptin sensitivity and reducing appetite, C57Bl/6J mice were placed on a high fat diet (HFD; Research Diets, D12451, 45 kcal % fat) feeding for 16 weeks. After establishment of obesity and leptin resistance, mice were administered NVP-AUY922 (at 15 mg/kg, in 25 μl DMSO, once per day) and vehicle (DMSO, 25 μl) with intraperitoneal (i.p.) injection. The animals had free access to food and water unless otherwise stated. In all experiments, three days prior to drug administration, the animals went through an acclimation period where they were given DMSO (25 μ1) to reduce the effect of stress created by i.p. injection. Following three days acclimation, mice were administered NVP-AUY922 daily i.p. injections at 15 mg/kg for three weeks in 25 μl of DMSO as vehicle, whereas the control group received the same volume of DMSO.

lean mice = assay: Body weight and food intake in 10-week old lean mice on chow diet, i.p. injection; assay type: in vivo; conditions: three weeks
Protocol: Gambogic acid was administered to 10-week old lean mice on chow diet at 0.5 mg/kg for three weeks by i.p. injections. […] Tanespimycin was administered to 10-week old lean mice on chow diet at 15 mg/kg for three weeks by i.p. injections. […] NVP-AUY922 was administered to 10-week old lean mice on chow diet at 15 mg/kg for three weeks by i.p. injections.

[2] = test system: leptin receptor deficient (db/db) mice; assay: Body weight and food intake in leptin receptor deficient (db/db) mice; assay type: in vivo; conditions: 0.5 mg/kg once a day
Protocol: To explore whether gambogic acid's effect is leptin dependent, gambogic acid (0.5 mg/kg, once a day, in 25μ1 DMSO) was administered to leptin receptor deficient (db/db) mice.

[3] = 0.5 mg/kg i.p. once per day, 0.5 mg/kg

## [Cr] [Chromium]
[1]
  Safety: Likely safe

## CCNC(=O)c1noc(-c2cc(C(C)C)c(O)cc2O)c1-c1ccc(CN2CCOCC2)cc1 [NVP-AUY922]
HFD-fed obese mice; 15 mg/kg i.p. once per day
  body weight: significantly decreased
Lean mice; 15 mg/kg i.p.
  food intake: failed to induce bodyweight loss or food intake
Lean mice; 15 mg/kg i.p., 15 mg/kg
  body weight: little or no decrease; also recorded: failed to induce bodyweight loss

## CC(C)=CCC[C@]1(C)C=Cc2c(O)c3c(c(CC=C(C)C)c2O1)O[C@]12C(=C[C@@H]4C[C@H]1C(C)(C)O[C@@]2(C/C=C(/C)C(=O)O)C4=O)C3=O [gambogic acid]
HFD-fed obese mice; [3]
  body weight: significantly decreased; also recorded: decreased body weight
  food intake: significantly decreased
HFD-fed obese mice; 0.5 mg/kg i.p. once per day, listed as SR-03, 0.5 mg/kg
  food intake: significant decrease
Lean mice; 0.5 mg/kg i.p., 0.5 mg/kg
  body weight: little or no decrease; also recorded: failed to induce bodyweight loss
  food intake: failed to induce bodyweight loss or food intake
Lean mice; 0.5 mg/kg i.p., listed as SR-03, 0.5 mg/kg
  food intake: little or no effect
[2]
  food intake: continued to increase similar to the vehicle treated group
[2]; 0.5 mg/kg
  body weight: continued to increase similar to the vehicle treated group; also recorded: not in db/db mice

## Conjugated linoleic acid
[1]
  Safety: Possibly safe
[1]; weight loss
  Effectiveness: Possibly effective
